Measurements reported in patent US10766869B2, “Triazoles for the treatment of demyelinating dieases” (Vertex Pharmaceuticals Incorporated, priority 2015, dated 2020).

Tested on: primary rat mixed cortical cells
Assay: In vitro myelination assay (MBP positive myelin strands, fold myelin pixels above background)
Assay type: cell-based
Settings: Rattus norvegicus, read-out: Fold myelin pixels above background relative to baseline of no added compound; for fold induction at 1 µM: 1.0 μM compound; for fold induction at 10 µM: 10.0 μM compound
How it was run: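 Fourteen-day treatment of primary P1 rat mixed cortical cultures, re-dosed at days 6 and 10, at 1.0 μM and 10.0 μM. MBP immunofluorescence was imaged at 10× and myelin strands quantified by software, normalised to untreated wells as fold above background.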

SMILES | fold induction at 1 µM | fold induction at 10 µM
[2H]C(C)(C)N1CCN(c2cc(C)cc(Nc3ncn(-c4ccccc4)n3)c2)CC1 [Compound 929, N-[3-[4-(1-deuterio-1-methyl-ethyl)piperazin-1-yl]-5-methyl-phenyl]-1-phenyl-1,2,4-triazol-3-amine] | 10 to 100 | ≤ 1
COCCN1CCC(Nc2cc(C)cc(Nc3ncn(-c4cc(F)cc(F)c4)n3)c2)CC1 [Compound 930, N3-[1-(3,5-difluorophenyl)-1,2,4-triazol-3-yl]-N1-[1-(2-methoxyethyl)-4-piperidyl]-5-methyl-benzene-1,3-diamine] | 10 to 100 | ≤ 1
Cc1cc(Nc2ncn(-c3cc(F)cc(F)c3)n2)cc(NC(C)CN2CCOCC2)c1 (stereo not drawn) [Compound 931, N3-[1-(3,5-difluorophenyl)-1,2,4-triazol-3-yl]-5-methyl-N1-(1-methyl-2-morpholino-ethyl)benzene-1,3-diamine] | 10 to 100 | ≤ 1
Cc1cc(NCC2COCCO2)cc(Nc2ncn(-c3cc(F)cc(F)c3)n2)c1 (stereo not drawn) [Compound 932, N1-[1-(3,5-difluorophenyl)-1,2,4-triazol-3-yl]-N3-(1,4-dioxan-2-ylmethyl)-5-methyl-benzene-1,3-diamine] | 1 to 10 | ≤ 1
Cc1cc(Nc2ncn(-c3cc(F)cc(F)c3)n2)cc(N2CCC(OCCN(C)C)CC2)c1 [Compound 933, 1-(3,5-difluorophenyl)-N-[3-[4-[2-(dimethylamino)ethoxy]-1-piperidyl]-5-methyl-phenyl]-1,2,4-triazol-3-amine] | 1 to 10 | ≤ 1
COCCN1CC(Nc2cc(C)cc(Nc3ncn(-c4cc(F)cc(F)c4)n3)c2)CC1=O (stereo not drawn) [Compound 934, 4-[3-[[1-(3,5-difluorophenyl)-1,2,4-triazol-3-yl]amino]-5-methyl-anilino]-1-(2-methoxyethyl)pyrrolidin-2-one] | 10 to 100 | ≤ 1
[2H]C1([2H])N(CC(F)F)C([2H])([2H])C([2H])([2H])N(c2cc(C)cc(Nc3ncn(-c4cc(F)cc(F)c4)n3)c2)C1([2H])[2H] [Compound 935, 1-(3,5-difluorophenyl)-N-[3-methyl-5-[2,2,3,3,5,5,6,6-octadeuterio-4-(2,2-difluoroethyl)piperazin-1-yl]phenyl]-1,2,4-triazol-3-amine] | 10 to 100 | 
Cc1cc(Nc2ncn(-c3cc(F)cc(F)c3)n2)cc(N2CCN(CC3CCOC3)CC2)c1 (stereo not drawn) [Compound 936, 1-(3,5-difluorophenyl)-N-[3-methyl-5-[4-(tetrahydrofuran-3-ylmethyl)piperazin-1-yl]phenyl]-1,2,4-triazol-3-amine] | 10 to 100 | ≤ 1
COCC1(CNc2cc(C)cc(Nc3ncn(-c4cc(F)cc(F)c4)n3)c2)CC1 [Compound 937, N1-[1-(3,5-difluorophenyl)-1,2,4-triazol-3-yl]-N3-[[1-(methoxymethyl)cyclopropyl]methyl]-5-methyl-benzene-1,3-diamine] | 1 to 10 | ≤ 1
Cc1cc(NCC2(C(=O)N(C)C)CCCC2)cc(Nc2ncn(-c3cc(F)cc(F)c3)n2)c1 [Compound 938, 1-[[3-[[1-(3,5-difluorophenyl)-1,2,4-triazol-3-yl]amino]-5-methyl-anilino]methyl]-N,N-dimethyl-cyclopentanecarboxamide] | 1 to 10 | ≤ 1
Cc1cc(Nc2ncn(-c3cc(F)cc(F)c3)n2)cc(NC2CCCCC2N2CCOCC2)c1 (stereo not drawn) [Compound 939, N3-[1-(3,5-difluorophenyl)-1,2,4-triazol-3-yl]-5-methyl-N1-(2-morpholinocyclohexyl)benzene-1,3-diamine] | 1 to 10 | ≤ 1
Cc1cc(NCCN2CC[S+]([O-])CC2)cc(Nc2ncn(-c3cc(F)cc(F)c3)n2)c1 [Compound 940, N1-[1-(3,5-difluorophenyl)-1,2,4-triazol-3-yl]-5-methyl-N3-[2-(1-oxo-1,4-thiazinan-4-yl)ethyl]benzene-1,3-diamine] | 10 to 100 | 1 to 10
Cc1cc(Nc2ncn(-c3cc(F)cc(F)c3)n2)cc(N2CCN(CC(C)(C)O)C(C)C2)c1 (stereo not drawn) [Compound 941, 1-[4-[3-[[1-(3,5-difluorophenyl)-1,2,4-triazol-3-yl]amino]-5-methyl-phenyl]-2-methyl-piperazin-1-yl]-2-methyl-propan-2-ol] | 1 to 10 | 1 to 10
Cc1cc(NCC2CC2)cc(Nc2ncn(-c3cc(F)cc(F)c3)n2)c1 [Compound 942, N3-(cyclopropylmethyl)-N1-[1-(3,5-difluorophenyl)-1,2,4-triazol-3-yl]-5-methyl-benzene-1,3-diamine] | 1 to 10 | ≤ 1
Cc1cc(Nc2ncn(-c3cc(F)cc(F)c3)n2)cc(N2CCN(CCN3CCCC3)CC2)c1 [Compound 944, 1-(3,5-difluorophenyl)-N-[3-methyl-5-[4-(2-pyrrolidin-1-ylethyl)piperazin-1-yl]phenyl]-1,2,4-triazol-3-amine] | 1 to 10 | ≤ 1
Cc1cc(Nc2ncn(-c3cc(F)cc(F)c3)n2)cc(N2CCN(CCCN3CCCC3)CC2)c1 [Compound 945, 1-(3,5-difluorophenyl)-N-[3-methyl-5-[4-(3-pyrrolidin-1-ylpropyl)piperazin-1-yl]phenyl]-1,2,4-triazol-3-amine] | 1 to 10 | ≤ 1
Cc1cc(NCC2CN(C(CO)CO)C2)cc(Nc2ncn(-c3cc(F)cc(F)c3)n2)c1 [Compound 946, 2-[3-[[3-[[1-(3,5-difluorophenyl)-1,2,4-triazol-3-yl]amino]-5-methyl-anilino]methyl]azetidin-1-yl]propane-1,3-diol] | ≤ 1 | ≤ 1
[2H]C1([2H])N(CC)C([2H])([2H])C([2H])([2H])N(c2cc(C)cc(Nc3ncn(-c4cc(F)cc(F)c4)n3)c2)C1([2H])[2H] [Compound 947, 1-(3,5-difluorophenyl)-N-[3-methyl-5-(2,2,3,3,5,5,6,6-octadeuterio-4-ethyl-piperazin-1-yl)phenyl]-1,2,4-triazol-3-amine] | 1 to 10 | ≤ 1
Cc1cc(Nc2ncn(-c3cc(F)cc(F)c3)n2)cc(N2CCC(N(C)C)CC2)c1 [Compound 948, 1-[3-[[1-(3,5-difluorophenyl)-1,2,4-triazol-3-yl]amino]-5-methyl-phenyl]-N,N-dimethyl-piperidin-4-amine] | 10 to 100 | ≤ 1
Cc1cc(Nc2ncn(-c3cc(F)cc(F)c3)n2)cc(N2CCN(CC3COCCO3)CC2)c1 (stereo not drawn) [Compound 949, 1-(3,5-difluorophenyl)-N-[3-[4-(1,4-dioxan-2-ylmethyl)piperazin-1-yl]-5-methyl-phenyl]-1,2,4-triazol-3-amine] | 10 to 100 | 10 to 100
Cc1cc(Nc2ncn(-c3cc(F)cc(F)c3)n2)cc(N2CCC(OCCF)CC2)c1 [Compound 950, 1-(3,5-difluorophenyl)-N-[3-[4-(2-fluoroethoxy)-1-piperidyl]-5-methyl-phenyl]-1,2,4-triazol-3-amine] | 10 to 100 | 1 to 10
Cc1cc(NCC2(N3CCOCC3)CC2)cc(Nc2ncn(-c3cc(F)cc(F)c3)n2)c1 [Compound 951, N1-[1-(3,5-difluorophenyl)-1,2,4-triazol-3-yl]-5-methyl-N3-[(1-morpholinocyclopropyl)methyl]benzene-1,3-diamine] | 1 to 10 | ≤ 1
Cc1cc(Nc2ncn(-c3cnccn3)n2)c(F)c(OC2CCOC2)c1 (stereo not drawn) [Compound 952, N-(2-fluoro-5-methyl-3-tetrahydrofuran-3-yloxy-phenyl)-1-pyrazin-2-yl-1,2,4-triazol-3-amine] | 1 to 10 | 1 to 10
Cc1cc(NC2CCOC2)cc(Nc2ncn(-c3cc(F)cc(F)c3)n2)c1F (stereo not drawn) [Compound 953, N3-[1-(3,5-difluorophenyl)-1,2,4-triazol-3-yl]-4-fluoro-5-methyl-N1-tetrahydrofuran-3-yl-benzene-1,3-diamine] | 1 to 10 | 1 to 10
Cc1cc(Nc2ncn(-c3cc(F)cc(F)c3)n2)cc(N2CCOC(CN3CCN(C)CC3)C2)c1 (stereo not drawn) [Compound 954, 1-(3,5-difluorophenyl)-N-[3-methyl-5-[2-[(4-methylpiperazin-1-yl)methyl]morpholin-4-yl]phenyl]-1,2,4-triazol-3-amine] | 1 to 10 | ≤ 1
Cc1cc(Nc2ncn(-c3cccc(F)c3)n2)c(F)c(N2CCN(C3COC3)CC2)c1 [Compound 955, N-[2-fluoro-5-methyl-3-[4-(oxetan-3-yl)piperazin-1-yl]phenyl]-1-(3-fluorophenyl)-1,2,4-triazol-3-amine] | 10 to 100 | 1 to 10
Cc1cc(Nc2ncn(-c3cc(F)cc(F)c3)n2)cc(N2CCN(C3CCN(C)CC3)CC2)c1 [Compound 956, 1-(3,5-difluorophenyl)-N-[3-methyl-5-[4-(1-methyl-4-piperidyl)piperazin-1-yl]phenyl]-1,2,4-triazol-3-amine] | ≤ 1 | ≤ 1
CCC(O)CN1CCN(c2cc(C)cc(Nc3ncn(-c4cc(F)cc(F)c4)n3)c2)CC1 (stereo not drawn) [Compound 957, 1-[4-[3-[[1-(3,5-difluorophenyl)-1,2,4-triazol-3-yl]amino]-5-methyl-phenyl]piperazin-1-yl]butan-2-ol] | 10 to 100 | ≤ 1
Cc1cc(Nc2ncn(-c3cc(F)cc(F)c3)n2)cc(N2CCOC(CCO)C2)c1 (stereo not drawn) [Compound 958, 2-[4-[3-[[1-(3,5-difluorophenyl)-1,2,4-triazol-3-yl]amino]-5-methyl-phenyl]morpholin-2-yl]ethanol] | 10 to 100 | ≤ 1
